Measurements reported in PubChem BioAssay (NCI).
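All cell lines were grown in 96-well plates and treated with compound for 48 hours. Definition used: TGI = concentration required for complete inhibition of growth.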

How the values were obtained:
Experiment in all cases: NCI anticancer screen, dose series, 48 h
SF-295 CNS = tested on: SF-295 CNS
RPMI-8226 leukemia = tested on: RPMI-8226 leukemia
MALME-3M melanoma = tested on: MALME-3M melanoma
SN12C renal = tested on: SN12C renal
SW-620 colon = tested on: SW-620 colon
UACC-62 melanoma = tested on: UACC-62 melanoma
SF-268 CNS = tested on: SF-268 CNS
NCI/ADR-RES ovarian = tested on: NCI/ADR-RES ovarian
SK-MEL-5 melanoma = tested on: SK-MEL-5 melanoma
SF-539 CNS = tested on: SF-539 CNS

`COc1ccc(N=C2C(=S)N(c3ccc(OC)cc3)/C(=N/S(=O)(=O)c3ccccc3)N2c2ccccc2)cc1` was tested, and the TGI (SF-295 CNS) was greater than 49.5 µM, the TGI (RPMI-8226 leukemia) was greater than 100 µM and the TGI (MALME-3M melanoma) was 36.2 µM. The TGI (SN12C renal) was 32.4 µM, the TGI (SW-620 colon) was 16.3 µM and the TGI (UACC-62 melanoma) was 16.2 µM. It also gave a TGI (SF-268 CNS) of 29.2 µM, a TGI (NCI/ADR-RES ovarian) greater than 71.4 µM and a TGI (SK-MEL-5 melanoma) of 11.1 µM. The TGI (SF-539 CNS) was 25.1 µM.

`OC1(c2ccc(Cl)cc2)c2ccc(CN3CCCC3)cc2C2=NCCN21` (stereo not given) showed a TGI (SF-295 CNS) of 29.5 µM, a TGI (RPMI-8226 leukemia) of 26 µM and a TGI (MALME-3M melanoma) of 25.2 µM. It also gave a TGI (SN12C renal) of 31.7 µM, a TGI (SW-620 colon) of 26.5 µM and a TGI (UACC-62 melanoma) of 28.1 µM. The TGI (SF-268 CNS) was 29.7 µM, the TGI (NCI/ADR-RES ovarian) was greater than 100 µM and the TGI (SK-MEL-5 melanoma) was 22.3 µM. The TGI (SF-539 CNS) was 25.9 µM.

Work on `O=C(O)c1c2c(cc3c1CC1(Cc4ccccc4C1=O)C3)CCC2` (stereo not given) yielded a TGI (SF-295 CNS) greater than 100 µM, a TGI (RPMI-8226 leukemia) of 52.3 µM and a TGI (MALME-3M melanoma) of 76.6 µM. It also gave a TGI (SN12C renal) greater than 100 µM, a TGI (SW-620 colon) greater than 100 µM and a TGI (UACC-62 melanoma) greater than 100 µM. It also gave a TGI (SF-268 CNS) greater than 100 µM, a TGI (NCI/ADR-RES ovarian) greater than 100 µM and a TGI (SK-MEL-5 melanoma) greater than 65 µM. The TGI (SF-539 CNS) was greater than 95.4 µM.

`COC(=O)c1cc(C)ccc1CC(Cc1ccc(C)cc1)C(=O)OC` (stereo not given) showed a TGI (SF-295 CNS) greater than 100 µM, a TGI (RPMI-8226 leukemia) greater than 100 µM and a TGI (MALME-3M melanoma) of 95.5 µM. For the same molecule, the TGI (SN12C renal) was greater than 100 µM, the TGI (SW-620 colon) was greater than 100 µM and the TGI (UACC-62 melanoma) was greater than 100 µM. The TGI (SF-268 CNS) was greater than 35.3 µM, the TGI (NCI/ADR-RES ovarian) was greater than 100 µM and the TGI (SK-MEL-5 melanoma) was 12.6 µM. The TGI (SF-539 CNS) was greater than 100 µM.

For `COc1cc(C=C2C(=O)NC(=S)NC2=O)cc(OC)c1OC`, the TGI (SF-295 CNS) was greater than 100 µM, the TGI (RPMI-8226 leukemia) was greater than 100 µM and the TGI (MALME-3M melanoma) was greater than 100 µM. For the same molecule, the TGI (SN12C renal) was greater than 100 µM, the TGI (SW-620 colon) was greater than 100 µM and the TGI (UACC-62 melanoma) was greater than 100 µM. The TGI (SF-268 CNS) was greater than 100 µM, the TGI (NCI/ADR-RES ovarian) was greater than 100 µM and the TGI (SK-MEL-5 melanoma) was greater than 100 µM. It also gave a TGI (SF-539 CNS) greater than 100 µM.

`NC(=O)c1ncn2c1NC(=O)CC2` gave a TGI (SF-295 CNS) greater than 100 µM, a TGI (RPMI-8226 leukemia) greater than 100 µM and a TGI (MALME-3M melanoma) greater than 100 µM. The TGI (SN12C renal) was greater than 100 µM, the TGI (SW-620 colon) was greater than 100 µM and the TGI (UACC-62 melanoma) was greater than 100 µM. It also gave a TGI (SF-268 CNS) greater than 100 µM, a TGI (NCI/ADR-RES ovarian) greater than 100 µM and a TGI (SK-MEL-5 melanoma) greater than 100 µM. The TGI (SF-539 CNS) was greater than 100 µM.

`COP(=O)(OC)C12CCOCCN1c1ccccc1C2=O` (stereo not given) showed a TGI (SF-295 CNS) greater than 100 µM, a TGI (RPMI-8226 leukemia) greater than 100 µM and a TGI (MALME-3M melanoma) greater than 100 µM. It also gave a TGI (SN12C renal) greater than 100 µM, a TGI (SW-620 colon) greater than 100 µM and a TGI (UACC-62 melanoma) greater than 100 µM. The TGI (SF-268 CNS) was greater than 100 µM, the TGI (NCI/ADR-RES ovarian) was greater than 100 µM and the TGI (SK-MEL-5 melanoma) was greater than 100 µM. The TGI (SF-539 CNS) was greater than 100 µM.

`Cc1cc(/N=C/c2ccc(C#N)cc2)n(-c2ccccc2)n1` was tested, and the TGI (SF-295 CNS) was greater than 100 µM, the TGI (RPMI-8226 leukemia) was greater than 100 µM and the TGI (MALME-3M melanoma) was greater than 100 µM. The TGI (SN12C renal) was greater than 100 µM, the TGI (SW-620 colon) was greater than 100 µM and the TGI (UACC-62 melanoma) was greater than 100 µM. The TGI (SF-268 CNS) was greater than 100 µM, the TGI (NCI/ADR-RES ovarian) was greater than 100 µM and the TGI (SK-MEL-5 melanoma) was greater than 100 µM. It also gave a TGI (SF-539 CNS) greater than 100 µM.

Work on `CC(C)(C)c1ccc(OCC(=O)O)c(Cl)c1` yielded a TGI (SF-295 CNS) greater than 100 µM, a TGI (RPMI-8226 leukemia) greater than 100 µM and a TGI (MALME-3M melanoma) greater than 100 µM. For the same molecule, the TGI (SN12C renal) was greater than 100 µM, the TGI (SW-620 colon) was greater than 100 µM and the TGI (UACC-62 melanoma) was greater than 100 µM. For the same molecule, the TGI (SF-268 CNS) was greater than 100 µM, the TGI (NCI/ADR-RES ovarian) was greater than 100 µM and the TGI (SK-MEL-5 melanoma) was greater than 100 µM. It also gave a TGI (SF-539 CNS) greater than 100 µM.

`c1ccc(C2=Nn3c(CCCCCCCCc4nnc5n4N=C(c4ccccc4)CS5)nnc3SC2)cc1` was tested, and the TGI (SF-295 CNS) was 55.3 µM, the TGI (RPMI-8226 leukemia) was greater than 100 µM and the TGI (MALME-3M melanoma) was greater than 89.6 µM. The TGI (SN12C renal) was greater than 100 µM, the TGI (SW-620 colon) was greater than 100 µM and the TGI (UACC-62 melanoma) was greater than 100 µM. The TGI (SF-268 CNS) was greater than 81.8 µM, the TGI (NCI/ADR-RES ovarian) was greater than 100 µM and the TGI (SK-MEL-5 melanoma) was greater than 100 µM. The TGI (SF-539 CNS) was 46.4 µM.

In the case of `N#Cc1c(C#N)c(-c2ccccc2)n(-c2ccccc2)c1N`, the TGI (SF-295 CNS) is reported as greater than 100 µM, the TGI (RPMI-8226 leukemia) is reported as greater than 100 µM and the TGI (MALME-3M melanoma) is reported as greater than 100 µM. For the same molecule, the TGI (SN12C renal) was greater than 100 µM, the TGI (SW-620 colon) was greater than 100 µM and the TGI (UACC-62 melanoma) was greater than 100 µM. It also gave a TGI (SF-268 CNS) greater than 100 µM, a TGI (NCI/ADR-RES ovarian) greater than 100 µM and a TGI (SK-MEL-5 melanoma) greater than 100 µM. It also gave a TGI (SF-539 CNS) greater than 100 µM.
